Paper PMC8483441 (Journal of Medicinal Chemistry, 2021)
≈ marks a conversion by molar mass, not a printed value. Square brackets hold non-standard residues; d marks the D form. Peptide text beside a SMILES is read from it. dOrn = NCCC[C@@H](N)C(=O)O; Orn = NCCC[C@H](N)C(=O)O

Assays:
E. coli = type: cell-based, Escherichia coli; details: 24 h
Experimental: (§1) Human serum was purchased from Sigma (St Louis, USA).
(§2) Incubations were kept at 37 °C for 24 h. Results are the average of three independent studies.

A. baumannii = type: cell-based, Acinetobacter baumannii; details: A. baumannii ATCC 15308; Mueller-Hinton medium, 5 × 10^5 CFU/mL, 37 °C, 24 h; average of three independent studies
Experimental: as §1, §2

Pseudomonas sp. [1] = test: MIC, broth microdilution; type: cell-based; details: Pseudomonas sp. ATCC 15915; Mueller-Hinton medium, 5 × 10^5 CFU/mL, 37 °C, 24 h; average of three independent studies
Experimental: as §1, §2

S. enterica = type: cell-based, Salmonella enterica; details: 24 h
Experimental: as §1, §2

S. flexneri = details: 24 h
Source text: Purified horse red blood cells were acquired from Thermo Fisher Scientific (Hampshire, England). Human serum was purchased from Sigma (St Louis, USA). E. coli was obtained from the Coli Genetic Stock Center (BW25113). S. flexneri (ATCC 29903), A. baumannii (ATCC 15308), Pseudomonas sp. (ATCC 15915), and S. enterica (ATCC 14028) were obtained from the CECT (Valencia, Spain). Clinical strains were supplied by the Vall d’Hebron Hospital (Barcelona, Spain). MRC5 fibroblasts were obtained from the Cytometry and Cell Culture Facility (SCAC, UAB) and originally purchased from ATCC.
The antibiotic activity was defined by the minimum peptide concentration where the microorganism is unable to grow. The assay was done in polypropylene 96-well plates (Greiner, Frickenhausen, Germany) to avoid peptide binding to plate wells. Peptides were dissolved in water containing 0.4% w/v bovine serum albumin (BSA) and 0.02% v/v glacial acetic acid to prevent self-aggregation, following the reference protocol by Wiegand et al.,[42] based on the classical microtiter broth dilution recommended by the […]. Initial bacteria inoculum was adjusted to 5 × 10^5 CFU/mL in Mueller-Hinton (MH) medium. Incubations were kept at 37 °C for 24 h. Results are the average of three independent studies. MIC assays in the presence of serum were performed by incubating the peptide with human serum at a 1:1 ratio. Then, 10^6 cfu/mL of Pseudomonas sp. were incubated with serial dilutions of the peptides for 4 h. To determine the MBC, 50 μL from all wells were seeded into Petri plates and incubated for 24 h. The MBC concentration was attributed to the lowest concentration without detectable bacterial growth for each peptide.

horse red blood cells = test: Hemolytic activity; type: cell-based; details: red cells of horse, 4 h, 250
Experimental: The peptide toxicity was determined detecting the disruption of horse red blood cells, following a previous assay report.[35] 10-fold diluted cells in PBS were centrifuged three times at 800g to eliminate the hemoglobin from disrupted cells. After the last resuspension, erythrocytes were incubated with the peptides for 4 h at 37 °C. The detection was done measuring the supernatant absorbance in a VICTOR3 multilabel plate reader (Perkin Elmer, Waltham, Massachusetts) at 540 nm in a microplate reader. Percentage of hemolysis was calculated through a pattern done with dilutions of total cell lysis done with a 1% Triton X-100 buffer. Results are the average of three independent studies.

[2] = Cytotoxicity in mammalian cells (MTT assay); type: cell-based; details: MRC-5 cytotoxicity (IC50)
Experimental: (§3) MRC-5 cells were grown in Eagle’s minimum essential medium (MEMα), supplemented with 10% fetal bovine serum (FBS). 96-well plates were seeded with 3 × 10^4 cells/well and cultured overnight in order to get cells adhered into the plate and then incubated with two-fold peptide serial dilutions. After 4 h of incubation, the medium containing the peptides was replaced by MEMα supplemented with FBS and 3-(4,5-dimethylthiazol-2-yl)-2,5-diphenyltetrazolium bromide (MTT) at 0.4 mg/mL and incubated for 150 min. Detection of formazan crystals in the living cells was done by cell disruption by addition of 200 μL of dimethyl sulfoxide (DMSO) followed by absorbance measuring at 600 nm in a Tecan Infinite F Nano+ microplate reader (Tecan, Germany). Results are the average of three independent studies.

MRC-5 cells = test: Cytotoxicity in mammalian cells (MTT assay); type: cell-based; details: 4 h
Experimental: as §3

A. baumannii 3862 = test: MIC, clinical bacterial strain; type: cell-based
Experimental: as §1, §2

A. baumannii 3878 = test: MIC, clinical bacterial strain; type: cell-based
Experimental: as §1, §2

A. baumannii 3879 = test: MIC, clinical bacterial strain; type: cell-based
Experimental: as §1, §2

A. baumannii 3880 = test: MIC, clinical bacterial strain; type: cell-based
Experimental: as §1, §2

E. coli 116878 = test: MIC, clinical bacterial strain; type: cell-based
Experimental: as §1, §2

E. coli cf073 = test: MIC, clinical bacterial strain; type: cell-based
Experimental: as §1, §2

P. aeruginosa 827632 = test: MIC, clinical bacterial strain; type: cell-based
Experimental: as §1, §2

P. aeruginosa 827651 = test: MIC, clinical bacterial strain; type: cell-based
Experimental: as §1, §2

S. typhimurium 324 = test: MIC, clinical bacterial strain; type: cell-based
Experimental: as §1, §2

S. typhimurium 365 = test: MIC, clinical bacterial strain; type: cell-based
Experimental: as §1, §2

Acinetobacter baumannii = type: cell-based; details: 50 μL from MIC wells seeded into Petri plates, 24 h; lowest concentration without detectable growth
Experimental: as §2

Escherichia coli = type: cell-based; details: 24 h
Experimental: as §2

Salmonella enterica = type: cell-based; details: 24 h
Experimental: as §2

Pseudomonas sp. [3] = test: Minimum bactericidal concentration (MBC); type: cell-based; details: 50 μL from MIC wells seeded into Petri plates, 24 h; lowest concentration without detectable growth
Experimental: as §2

Shigella flexneri = details: 50 μL from MIC wells seeded into Petri plates, 24 h; lowest concentration without detectable growth
Experimental: The antibiotic activity was defined by the minimum peptide concentration where the microorganism is unable to grow. The assay was done in polypropylene 96-well plates (Greiner, Frickenhausen, Germany) to avoid peptide binding to plate wells. Peptides were dissolved in water containing 0.4% w/v bovine serum albumin (BSA) and 0.02% v/v glacial acetic acid to prevent self-aggregation, following the reference protocol by Wiegand et al.,[42] based on the classical microtiter broth dilution recommended by the National Committee of Laboratory Safety and Standards (NCLSS). Initial bacteria inoculum was adjusted to 5 × 10^5 CFU/mL in Mueller-Hinton (MH) medium. Incubations were kept at 37 °C for 24 h. Results are the average of three independent studies. […] To determine the MBC, 50 μL from all wells were seeded into Petri plates and incubated for 24 h. The MBC concentration was attributed to the lowest concentration without detectable bacterial growth for each peptide.

In the case of CC[C@H](C)[C@H](NC(=O)[C@H](C)NC(=O)[C@H](CCCN)NC(=O)[C@H](CCSC)NC(=O)[C@H](C)NC(=O)[C@@H](NC(=O)[C@@H](NC(=O)[C@H](CCCN)NC(=O)[C@@H]1CCCN1C(=O)[C@H](CO)NC(=O)[C@@H](NC(=O)[C@H](Cc1c[nH]cn1)NC(=O)[C@H](CCC(N)=O)NC(=O)[C@@H](NC(=O)[C@H](C)NC(=O)[C@H](Cc1ccccc1)NC(=O)[C@H](Cc1c[nH]c2ccccc12)NC(=O)[C@H](CCC(N)=O)NC(=O)[C@H](C)NC(=O)[C@H](CCCN)NC(=O)[C@@H](NC(=O)[C@H](Cc1ccccc1)NC(=O)[C@H]1CCCN1C(=O)[C@H](N)CCCN)[C@@H](C)O)[C@@H](C)CC)[C@@H](C)CC)[C@@H](C)O)[C@@H](C)CC)C(=O)N[C@@H](CC(N)=O)C(=O)N[C@@H](CC(N)=O)C(=O)N[C@@H](Cc1ccc(O)cc1)C(=O)N[C@@H](CCCN)C(=O)N[C@@H](Cc1c[nH]c2ccccc12)C(=O)N[C@@H](CCCN)C(N)=O [peptide 7] (H-[dOrn][dP]FT[Orn]AQWFAIQHISP[Orn]TIAM[Orn]AINNY[Orn]W[Orn]-NH2), the “MIC E. coli” value (E. coli) is reported as 3.13 µM (≈ 11 µg/mL), the “MIC A. baumannii” value (A. baumannii) is reported as 6.25 µM (≈ 21.9 µg/mL) and the “MIC Pseudomonas sp.” value (Pseudomonas sp. [1]) is reported as 1.56 µM (≈ 5.47 µg/mL). For the same molecule, the “MIC S. enterica” value (S. enterica) was 25 µM (≈ 87.6 µg/mL), the “MIC S. flexneri” value (S. flexneri) was 6.25 µM (≈ 21.9 µg/mL) and the “hemolysis % (250 μM peptide)” value (horse red blood cells) was 3.6 ± 0.7%. The IC50 [2] was no more than 230 µM, the IC50 (MRC-5 cells) was 170 ± 20 µM and the “MIC A. baumannii 3862” value (A. baumannii 3862) was 0.78 µM (≈ 2.73 µg/mL). The “MIC A. baumannii 3878” value (A. baumannii 3878) was 0.78 µM (≈ 2.73 µg/mL), the “MIC A. baumannii 3879” value (A. baumannii 3879) was 1.56 µM (≈ 5.47 µg/mL) and the “MIC A. baumannii 3880” value (A. baumannii 3880) was 6.25 µM (≈ 21.9 µg/mL). For the same molecule, the “MIC E. coli 116878” value (E. coli 116878) was 6.25 µM (≈ 21.9 µg/mL), the “MIC E. coli cf073” value (E. coli cf073) was 3.13 µM (≈ 11 µg/mL) and the “MIC P. aeruginosa 827632” value (P. aeruginosa 827632) was 25 µM (≈ 87.6 µg/mL). The “MIC P. aeruginosa 827651” value (P. aeruginosa 827651) was 100 µM (≈ 351 µg/mL), the “MIC S. typhimurium 324” value (S. typhimurium 324) was 25 µM (≈ 87.6 µg/mL) and the “MIC S. typhimurium 365” value (S. typhimurium 365) was 25 µM (≈ 87.6 µg/mL). For the same molecule, the “MBC Acinetobacter baumannii” value (Acinetobacter baumannii) was 6.25 µM (≈ 21.9 µg/mL), the “MBC Escherichia coli” value (Escherichia coli) was 3.13 µM (≈ 11 µg/mL) and the “MBC Salmonella enterica” value (Salmonella enterica) was 25 µM (≈ 87.6 µg/mL). The “MBC Pseudomonas sp.” value (Pseudomonas sp. [3]) was 1.56 µM (≈ 5.47 µg/mL) and the “MBC Shigella flexneri” value (Shigella flexneri) was 6.25 µM (≈ 21.9 µg/mL).
